Here are results for 5 compounds from US4415730A, “19-Deformyl-deoxy-desmycosin” (priority 1981, dated 1983).

Common to all, as to format: cell-based
Assay [1] deals with Staphylococcus aureus MS353. The assay can be described thus: MIC, Staphylococcus aureus MS353.
Assay [2] has as its system Streptococcus pyogenes N.Y.5. The assay can be described thus: MIC, Streptococcus pyogenes N.Y.5.
Assay [3] has as its system Staphylococcus aureus ATCC 6538P. The assay can be described thus: MIC, Staphylococcus aureus ATCC 6538P. The settings on record: ATCC6538P.
The test system of assay [4] is Streptococcus pyogenes 1022. The assay can be described thus: MIC, Streptococcus pyogenes 1022.
Assay [5] deals with Staphylococcus aureus 0119. Nature of the assay: MIC, Staphylococcus aureus 0119. From the text:
(§1) *Macrolide antibioticsresistant A group strain (clinical isolates of
(§2) erythromycin, oleandomycin and 16member-ring-macrolide-resistant strain)

The test system of assay [6] is Staphylococcus aureus 0116. Nature of the assay: MIC, Staphylococcus aureus 0116.
Text: as §1, §2

Assay [7] concerns Staphylococcus aureus MS353AO. Nature of the assay: MIC, Staphylococcus aureus MS353AO.
Text: as §1, §2

For assay [8], the system named is Staphylococcus aureus 0127. Nature of the assay: MIC, Staphylococcus aureus 0127.
Text: as §1, §2

Setting [9] is: Staphylococcus aureus 0119, macrolide-resistant A group strain, clinical isolate, read-out: MIC.
Setting [10] is: Staphylococcus aureus 0116, macrolide-resistant A group strain, clinical isolate, read-out: MIC.
Where [11] appears, read: Staphylococcus aureus 0127, macrolide-resistant A group strain, clinical isolate, read-out: MIC.

A word on the MIC: it is the least concentration at which growth counts as inhibited.

In brackets after ≈: the same amount, converted by molar mass. Like-named read-outs stand apart in the source and are kept apart here.

Turning to `CCC1OC(=O)CC(O)C(C)C(OC2OC(C)C(O)C(N(C)C)C2O)C(CC=O)CC(C)C(=O)/C=C/C(C)=C/C1COC1OC(C)C(O)C(OC)C1OC` (stereo not shown) [descomycin, 4'-demycarosyl tylosin], the MIC in assay [1] is 0.8 µg/mL (≈ 1.04 µM); in assay [2], ≤ 0.05 µg/mL; in assay [3], 0.8 µg/mL (≈ 1.04 µM); in assay [4] (read-out: MIC), > 100 µg/mL; in assay [5] (setting [9]), > 100 µg/mL; in assay [6] (setting [10]), 3.1 µg/mL (≈ 4.02 µM). Also, the MIC in assay [7] (Staphylococcus aureus, MS353AO) is > 100 µg/mL; in assay [8] (setting [11]), > 100 µg/mL.
As for `CCC1OC(=O)CC(O)C(C)C(OC2OC(C)CC(N(C)C)C2O)C(C)CC(C)C(=O)C=CC(C)=CC1COC1OC(C)C(O)C(OC)C1OC` (stereo not shown) [Compound [1] R1 = H, 19-deformyl-4'-deoxy-desmycosin], the MIC in assay [1] was ≤ 0.05 µg/mL; in assay [2] it was ≤ 0.05 µg/mL; in assay [3] it was ≤ 0.05 µg/mL; in assay [4], > 100 µg/mL; in assay [5] (setting [9]), > 100 µg/mL; in assay [6] (setting [10]), 0.8 µg/mL (≈ 1.1 µM). The MIC in assay [7] (Staphylococcus aureus, MS353AO) was 0.8 µg/mL (≈ 1.1 µM); in assay [8] (setting [11]), > 100 µg/mL.
For the compound `CCC1OC(=O)CC(O)C(C)C(OC2OC(C)C(O)C(N(C)C)C2O)C(C)CC(C)C(=O)C=CC(C)=CC1COC1OC(C)CC(OC)C1OC` (stereo not shown) [Compound [1] R1 = OH, 19-deformyl-4"-deoxy-desmycosin], the MIC in assay [1] was ≤ 0.05 µg/mL; in assay [2], ≤ 0.05 µg/mL; in assay [3], 0.1 µg/mL (≈ 0.137 µM); in assay [4] (read-out: MIC), 25 µg/mL (≈ 34.3 µM); in assay [5] (setting [9]), 12.5 µg/mL (≈ 17.2 µM); in assay [6] (setting [10]), 3.1 µg/mL (≈ 4.26 µM). The MIC was 25 µg/mL (≈ 34.3 µM) in assay [7] (Staphylococcus aureus, MS353AO) and 6.3 µg/mL (≈ 8.65 µM) in assay [8] (Staphylococcus aureus, 0127).
Regarding `CO[C@@H]1[C@@H](O[C@@H]2O[C@H](C)[C@@H](O[C@H]3C[C@@](C)(O)[C@@H](OC(=O)CC(C)C)[C@H](C)O3)[C@H](N(C)C)[C@H]2O)[C@@H](CC=O)C[C@@H](C)[C@@H](O)/C=C/C=C/C[C@@H](C)OC(=O)C[C@H]1OC(C)=O` [josamycin], the MIC in assay [1] was 0.8 µg/mL (≈ 0.966 µM); in assay [2], ≤ 0.05 µg/mL; in assay [3], 0.4 µg/mL (≈ 0.483 µM); in assay [4] (read-out: MIC), > 100 µg/mL; in assay [5] (setting [9]), > 100 µg/mL; in assay [6] (setting [10]), > 100 µg/mL. Also, the MIC is > 100 µg/mL in assay [7] (Staphylococcus aureus, MS353AO) and > 100 µg/mL in assay [8] (setting [11]).
For `CC[C@H]1OC(=O)[C@H](C)[C@@H](O[C@H]2C[C@@](C)(OC)[C@@H](O)[C@H](C)O2)[C@H](C)[C@@H](O[C@@H]2O[C@H](C)C[C@H](N(C)C)[C@H]2O)[C@](C)(O)C[C@@H](C)C(=O)[C@H](C)[C@@H](O)[C@]1(C)O` [erythromycin], the minimum inhibitory concentration (MIC) in assay [1] was 0.1 µg/mL (≈ 0.136 µM); in assay [2], ≤ 0.05 µg/mL; in assay [3], ≤ 0.05 µg/mL; in assay [4] it was > 100 µg/mL; in assay [5] (Staphylococcus aureus, 0119) it was > 100 µg/mL; in assay [6] (Staphylococcus aureus, 0116) it was > 100 µg/mL. Moreover, the MIC in assay [7] (Staphylococcus aureus MS353AO, macrolide-resistant A group strain, clinical isolate, read-out: MIC) was > 100 µg/mL; in assay [8] (Staphylococcus aureus, 0127), > 100 µg/mL.
